Usually IC50 stands for the concentration that inhibits the measured activity by half.

IC50 data for 38 compounds are collected here from US20110269758A1, “NAPHTHYRIDINONES AS PROTEIN KINASE INHIBITORS” (MERCK PATENT GMBH, priority 2008, published 2011).

The target of the first test is T1, Aurora Kinase A (Homo sapiens, UniProt O14965).
T1 construct: full length Aurora A (1-403 amino acids); purchased Carna Biosciences 05-101
T1 sequence (O14965 1-403): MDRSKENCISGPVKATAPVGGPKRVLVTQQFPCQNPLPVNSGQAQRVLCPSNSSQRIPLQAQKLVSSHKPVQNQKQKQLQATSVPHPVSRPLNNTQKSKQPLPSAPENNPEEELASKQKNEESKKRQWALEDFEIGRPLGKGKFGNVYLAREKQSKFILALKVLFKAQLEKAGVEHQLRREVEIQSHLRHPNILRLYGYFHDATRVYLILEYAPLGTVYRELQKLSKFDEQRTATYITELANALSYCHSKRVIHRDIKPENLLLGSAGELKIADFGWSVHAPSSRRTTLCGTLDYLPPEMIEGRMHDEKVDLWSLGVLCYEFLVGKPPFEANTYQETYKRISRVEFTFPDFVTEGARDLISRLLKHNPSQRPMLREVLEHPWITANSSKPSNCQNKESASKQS
The test is described as follows: Biochemical enzyme assay for Aurora A activity (Caliper LC3000 / Desktop Profiler mobility shift).
Conditions: not given
As for the experimental part:
The Aurora assays described here were performed on two Caliper Life Sciences systems, the LC3000 and the Desktop Profiler. These provide data on enzyme activity via measurement of the relative amounts of phosphorylated or unphosphorylated fluorescently labelled substrate peptide at the end of an enzymatic reaction. These different states of peptide are resolved by applying a potential difference across the sample. The presence of a charged phosphate group on the product (as opposed to the substrate) causes a different peptide mobility between the two peptides. This is visualized by excitation of a fluorescent label on the substrate and product peptides and represented as peaks within the analysis software.
In order to measure inhibitor activity of Aurora A inhibitors in the Caliper Life Sciences LC3000, a TTP Mosquito liquid handling instrument was used to place 0.25 μl of an appropriate concentration of inhibitor in 100% DMSO (for a dose response curve calculation) into each well of a 384-well plate.
The reaction was incubated for 90 min at 25° C., and then stopped by the addition of 70 μl of Stop buffer (100 mM HEPES pH 7.5, 0.015% Brij-35, 10 mM EDTA (Sigma, E7889)).
The plate was read on a Caliper LC 3000 in an Off-Chip mobility shift assay format, using the following parameters for a 12-sipper chip: screening pressure −1.8 psi, upstream voltage −2700, downstream voltage −1000. These conditions cause unphosphorylated substrate and phosphorylated product peptide to resolve as separate peaks allowing direct measurement of percentage of conversion of substrate to product.
The Desktop Profiler utilizes the same prinicipal as the LC 3000 for calculating percentage conversion of a substrate to product. Caliper Life Sciences provided proprietary flash frozen pre-made 384 well plates containing selected kinases. Each column in the 384 well plate contained a particular selected kinase. A second plate, the ‘substrate plate’ contained a mix of fluorescently labeled peptide substrate and ATP. These were arranged in columns so that transfer for substrate plate to enzyme plate provided the correct enzyme with the correct substrate/ATP concentration.
Compounds were added to a thawed enzyme plate in the desired format, in single concentrations. Reactions were initiated by transfer of the substrate/ATP mix from the substrate plate. The enzyme plate was incubated for 90 mins at 25° C. The reaction was stopped by addition of 70 μl of Stop Buffer (100 mM HEPES pH 7.5, 0.015% Brij-35, 10 mM EDTA (Sigma, E7889)).
Plates were read in a manner identical to that of the LC3000, and the ratio between substrate and product peaks provided the activity of the enzyme in that well.
In the case of `COc1ccccc1C(=O)Nc1ccc(N)cc1` [Compound 16, N-(4-Aminophenyl)-2-methoxy-benzamide], the IC50 lay within 0.001 to 0.3 µM.

The test is the same for the next values; noted with them: GST-Aurora A, 15 μM ATP, 90 min at 25° C.; LC3000 or Desktop Profiler; read-out: Aurora Kinase A IC50.
Turning to `Nc1ccc(NC(=O)c2cccc(C(F)(F)F)c2F)cc1` [Compound 7, N-(4-Aminophenyl)-2-fluoro-3-trifluoromethyl-benzamide], the half-inhibitory concentration (IC50) lay in the range of 0.001 to 0.3 µM. Consider `Nc1ccc(NC(=O)c2ccc(F)cc2C(F)(F)F)cc1` [Compound 8, N-(4-Aminophenyl)-4-fluoro-2-trifluoromethyl-benzamide], for which the IC50 was 0.001 to 0.3 µM. For the compound `Nc1ccc(NC(=O)c2ccc(F)c(F)c2)cc1` [Compound 10, N-(4-Aminophenyl)-3,4-difluoro-benzamide], the IC50 was 0.301 to 0.6 µM. As to `Nc1ccc(NC(=O)c2cc(F)cc(F)c2)cc1` [Compound 11, N-(4-Aminophenyl)-3,5-difluoro-benzamide], the IC50 lay in the range of 0.001 to 0.3 µM. For `Nc1ccc(NC(=O)c2ccc(F)cc2F)cc1` [Compound 12, N-(4-Aminophenyl)-2,4-difluoro-benzamide], the IC50 lay within 0.001 to 0.3 µM. Consider `Nc1ccc(NC(=O)C2CCCCC2)cc1` [Compound 13, Cyclohexanecarboxylic acid (4-aminophenyl)-amide], for which the IC50 was in the range of 0.001 to 0.3 µM. Regarding `Nc1ccc(NC(=O)c2cc(C(F)(F)F)cc(C(F)(F)F)c2)cc1` [Compound 14, N-(4-Aminophenyl)-3,5-bis-trifluoromethyl-benzamide], the IC50 lay within 0.001 to 0.3 µM. Turning to `Nc1ccc(NC(=O)c2ccc3ccccc3c2)cc1` [Compound 15, Naphthalene-2-carboxylic acid (4-aminophenyl)-amide], the IC50 was 0.001 to 0.3 µM. Same read-out and setting: for `Cc1ccc(C(=O)Nc2ccc(N)cc2)cc1` [Compound 17, N-(4-Aminophenyl)-4-methyl-benzamide] the value was 0.001 to 0.3 µM; for `Nc1ccc(NC(=O)c2ccc(C(F)(F)F)cc2F)cc1` [Compound 18, N-(4-Aminophenyl)-2-fluoro-4-trifluoromethyl-benzamide], 0.001 to 0.3 µM; for `Nc1ccc(NC(=O)c2cc(F)cc(C(F)(F)F)c2)cc1` [Compound 19, N-(4-Aminophenyl)-3-fluoro-5-trifluoromethyl-benzamide], 0.001 to 0.3 µM.

With `Nc1ccc(NC(=O)c2ccc(Cl)cc2)cc1` [Compound 20, N-(4-Aminophenyl)-4-chloro-benzamide], the IC50 lay within 0.001 to 0.3 µM. On to `Nc1ccc(NC(=O)c2ccc(OC(F)(F)F)cc2)cc1` [Compound 21, N-(4-Aminophenyl)-4-trifluoromethoxy-benzamide], for which the IC50 was 0.001 to 0.3 µM. On the same count and under the same terms, for `Cc1ccccc1C(=O)Nc1ccc(N)cc1` [Compound 22, N-(4-Aminophenyl)-2-methyl-benzamide] the value was 0.601 to 1 µM; for `Cc1cccc(C(=O)Nc2ccc(N)cc2)c1` [Compound 23, N-(4-Aminophenyl)-3-methyl-benzamide], over 1 µM; for `Nc1ccc(NC(=O)c2cccc3ccccc23)cc1` [Compound 24, Naphthalene-1-carboxylic acid (4-aminophenyl)-amide], over 1 µM. For `Nc1ccc(NC(=O)c2c(Cl)cccc2Cl)cc1` [Compound 25, N-(4-Aminophenyl)-2,6-dichloro-benzamide], the IC50 fell in the range of 0.001 to 0.3 µM. As for `Nc1ccc(NC(=O)c2ccc(Cl)c(Cl)c2)cc1` [Compound 26, N-(4-Aminophenyl)-3,4-dichloro-benzamide], the IC50 was in the range of 0.001 to 0.3 µM. Consider `Nc1ccc(NC(=O)c2ccc(Cl)cc2Cl)cc1` [Compound 27, N-(4-Aminophenyl)-2,4-dichloro-benzamide], for which the IC50 was in the range of 0.001 to 0.3 µM. With `CC(C)(C)C(=O)Nc1cc(Cl)ccn1` [Compound 28, N-(4-chloropyridin-2-yl)-2,2-dimethylpropanamide], the IC50 lay within 0.001 to 0.3 µM. For `CC(C)(C)C(=O)Nc1nccc(Cl)c1C=O` [Compound 29, N-(4-chloro-3-formylpyridin-2-yl)-2,2-dimethylpropanamide], the IC50 lay in the range of 0.301 to 0.6 µM.

For `CC(C)(C)OC(=O)CC(O)c1c(Cl)ccnc1NC(=O)C(C)(C)C` (centres unmarked) [Compound 30, Tert-butyl 3-{4-chloro-2-[(2,2-dimethylpropanoyl)amino]pyridin-3-yl}-3-hydroxypropanoate], the IC50 is 0.001 to 0.3 µM.

Consider `O=c1ccc2c(Cl)ccnc2[nH]1` [Compound 31, 5-Chloro-1,8-naphthyridi-2(1H)-one], for which the 50% inhibitory concentration (IC50) lay within 0.001 to 0.3 µM.

Take `O=c1ccc2c(Nc3c(Cl)ccc4c3OCO4)ccnc2[nH]1` [Compound 31a, 5-(5-chlorobenzo[d][1,3]dioxo-4-ylamino)-1,8-naphthyridin-2(1H)-one]: the IC50 fell in the range of 0.001 to 0.3 µM.

For the compound `O=C(Nc1ccc(Nc2ccnc3[nH]c(=O)ccc23)cc1)c1ccccc1` [Compound 32, N-(4-(7-oxo-7,8-dihydro-1,8-naphthyridin-4-yl-amino)phenyl)benzamide], the IC50 was 0.001 to 0.3 µM. Turning to `O=C(Nc1ccc(Nc2ccnc3[nH]c(=O)ccc23)cc1)c1ccccc1F` [Compound 34, 2-Fluoro-N-(4-(7-oxo-7,8-dihydro-1,8-naphthyridin-4-yl-amino)phenyl)benzamide], the IC50 lay within 0.001 to 0.3 µM.

`O=C(Nc1ccc(Nc2ccnc3[nH]c(=O)ccc23)cc1)c1cccc(F)c1` [Compound 35, 3-Fluoro-N-(4-(7-oxo-7,8-dihydro-1,8-naphthyridin-4-yl-amino)phenyl)benzamide]: the IC50 was 0.001 to 0.3 µM. On the same count and under the same terms, as for `O=C(Nc1ccc(Nc2ccnc3[nH]c(=O)ccc23)cc1)c1ccc(F)cc1` [Compound 36, 4-Fluoro-N-(4-(7-oxo-7,8-dihydro-1,8-naphthyridin-4-yl-amino)phenyl)benzamide], the figure is 0.001 to 0.3 µM; as for `O=C(Nc1ccc(Nc2ccnc3[nH]c(=O)ccc23)cc1)c1ccc(F)cc1C(F)(F)F` [Compound 40, 4-Fluoro-2-trifluoromethyl-N-(4-(7-oxo-7,8-dihydro-1,8-naphthyridin-4-yl-amino)phenyl)benzamide], 0.001 to 0.3 µM. The same measure, in the same setting: as for `O=C(Nc1ccc(Nc2ccnc3[nH]c(=O)ccc23)cc1)c1c(F)cccc1F` [Compound 41, 2,6-Difluoro-N-(4-(7-oxo-7,8-dihydro-1,8-naphthyridin-4-yl-amino)phenyl)benzamide], the figure is 0.001 to 0.3 µM. With `O=C(Nc1ccc(Nc2ccnc3[nH]c(=O)ccc23)cc1)c1ccc(F)c(F)c1` [Compound 42, 3,4-Difluoro-N-(4-(7-oxo-7,8-dihydro-1,8-naphthyridin-4-yl-amino)phenyl)benzamide], the IC50 was 0.001 to 0.3 µM. Take `O=C(Nc1ccc(Nc2ccnc3[nH]c(=O)ccc23)cc1)c1cc(F)cc(F)c1` [Compound 43, 3,5-Difluoro-N-(4-(7-oxo-7,8-dihydro-1,8-naphthyridin-4-yl-amino)phenyl)benzamide]: the IC50 lay within 0.001 to 0.3 µM. In the case of `O=C(Nc1ccc(Nc2ccnc3[nH]c(=O)ccc23)cc1)c1ccc(F)cc1F` [Compound 44, 2,4-Difluoro-N-(4-(7-oxo-7,8-dihydro-1,8-naphthyridin-4-yl-amino)phenyl)benzamide], the IC50 lay within 0.301 to 0.6 µM. With `O=C(Nc1ccc(Nc2ccnc3[nH]c(=O)ccc23)cc1)C1CCCCC1` [Compound 45, N-(4-(7-oxo-7,8-dihydro-1,8-naphthyridin-4-yl-amino)phenyl)cyclohexanecarboxamide], the IC50 lay within 0.001 to 0.3 µM. Take `O=C(Nc1ccc(Oc2ccnc3[nH]c(=O)ccc23)cc1)c1ccccc1` [Compound 46, N-(4-(7-oxo-7,8-dihydro-1,8-naphthyridin-4-yloxy)phenyl)benzamide]: the IC50 lay in the range of 0.001 to 0.3 µM. Regarding `O=C(Nc1ccccc1Nc1ccnc2[nH]c(=O)ccc12)c1ccccc1` [Compound 47, N-(2-(7-oxo-7,8-dihydro-1,8-naphthyridin-4-ylamino)phenyl)benzamide], the IC50 lay within 0.001 to 0.3 µM. As to `O=C(Nc1ccccc1)c1ccc(Nc2ccnc3[nH]c(=O)ccc23)cc1` [Compound 48, 4-(7-Oxo-7,8-dihydro-1,8-naphthyridin-4-ylamino)-N-phenyl-benzamide], the IC50 is over 1 µM.
